Data from PubChem BioAssay (NCI).
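Cultured in 96-well plates, cells were exposed to test compound for 48 hours across five concentrations. TGI denotes the concentration required for complete inhibition of growth.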

tested on: SNB-75 CNS; test: NCI tumour cell line growth inhibition, 48 h

CCn1c(-c2cc(OC)cc(OC)c2)nc2c1C(=O)c1ccccc1C2=O and COc1cc(Nc2cnc3cc(F)c(F)cc3n2)cc(OC)c1OC cannot be ordered by TGI: > 100 µM for the first, > 100 µM for the second.

CCN(CC)c1c(N(CC)CC)c(=O)c1=O and CC[N+](CC)(CCNCC(N)=O)CC(N)=O cannot be ordered by TGI: 62.6 µM for the first, > 10 µM for the second.

COc1cc(-c2cc(=O)c3c(OC)c(OC)c(OC)c(OC)c3o2)c(OC)c(OC)c1OC and COc1cc(/C=C2\CCC(C)C3C2=NN(C(C)=O)C3c2cc(OC)c(OC)c(OC)c2)cc(OC)c1OC (configuration not stated) cannot be ordered by TGI: > 100 µM for the first, > 54.6 µM for the second.

O=[N+]([O-])c1ccc(Cl)c(C=NC23CC4CC(CC(C4)C2)C3)c1 and CCSc1n/c(=C\c2ccco2)c2nnnn12 cannot be ordered by TGI: > 10 µM for the first, > 100 µM for the second.

Molecule CCCCCCCCCCCCCCCCCCNc1ccn(C2OC(COP(=O)(O)OCC3OC(n4cc(C)c(=O)[nH]c4=O)CC3O)C(O)C2O)c(=O)n1 (configuration not stated) has a TGI of 33 µM.

tested on: UACC-257 melanoma; test: NCI tumour cell line growth inhibition, 48 h

First: S=C(NCc1ccccc1)c1nc[nH]c1C(=S)NCc1ccccc1
Second: COc1ccc(C(=O)Sc2c(-c3ccccc3)c(=O)n(-c3ccccc3)c(=S)n2-c2ccccc2)cc1
The TGI of the first is lower: 23.4 µM for the first, > 100 µM for the second.

First: O=Cc1ccc2c(c1)CC1(C2)Cc2ccc3c(c2C1)CCC3 (configuration not stated)
Second: Nc1nc(N)c2[nH]c(CNc3ccc(C(=O)O)cc3)nc2n1
The TGI of the first is lower: 33 µM for the first, > 100 µM for the second.

Compared with CC(C)(Cc1ccccc1)NC1=NCCO1, CCC1(CC)SCc2nc3ccccc3n21 is lower in TGI: > 100 µM for the first, 71.9 µM for the second.

First: C=C(C)C(CC=C(C)C)CC12CC(CC=C(C)C)C(C)(C)C(CC=C(C)C)(C(=O)C(Cc3ccc(O)c(O)c3)=C1O)C2=O (configuration not stated)
Second: COc1ccc(CC2c3cc(Oc4cc(CC5c6cc(OC)c(OC)cc6CCN5C)ccc4O)c(OC)cc3CCN2C)cc1 (configuration not stated)
The TGI of the first is higher: > 100 µM for the first, 15 µM for the second.

Going from CCc1nc(N)nc(N)c1-c1ccc2nn(-c3ccccc3)[n+]([O-])c2c1 to CC(=O)n1nc(-c2ccccc2)n(/N=C/c2ccc([N+](=O)[O-])cc2)c1=O, the TGI rises from 24.2 µM to > 100 µM.

C[C@]12CC[C@H](O)CC1=CC[C@@H]1[C@@H]2CC[C@]2(C)C(=O)[C@@H](N3CCOCC3)C[C@@H]12 and O=[N+]([O-])c1ccc(Cl)c(C=NC23CC4CC(CC(C4)C2)C3)c1 cannot be ordered by TGI: > 100 µM for the first, > 10 µM for the second.

COc1ccc(C(C)NNC(=O)c2ccncc2)c(OC)c1 (configuration not stated) and CCn1c(-c2cc(OC)cc(OC)c2)nc2c1C(=O)c1ccccc1C2=O cannot be ordered by TGI: > 100 µM for the first, > 100 µM for the second.

First: O=[N+]([O-])c1cc2oc(COc3ccccc3)nc2cc1Cl
Second: COc1cc(Nc2cnc3cc(F)c(F)cc3n2)cc(OC)c1OC
The TGI of the first is lower: 63.4 µM for the first, > 100 µM for the second.

Going from Cc1ccc(S(=O)(=O)N/N=C/C(=C/c2ccc(Cl)cc2)CC(/C=N/NS(=O)(=O)c2ccc(C)cc2)=C\c2ccc(Cl)cc2)cc1 to CC(C)(C)c1cc(C(P(=O)(c2ccccc2)c2ccccc2)P(=O)(c2ccccc2)c2ccccc2)cc(C(C)(C)C)c1O, the TGI falls from 63.6 µM to 4.18 µM (15-fold).

CCN(CC)c1c(N(CC)CC)c(=O)c1=O and CC[N+](CC)(CCNCC(N)=O)CC(N)=O cannot be ordered by TGI: 20.5 µM for the first, > 10 µM for the second.

COc1cc(-c2cc(=O)c3c(OC)c(OC)c(OC)c(OC)c3o2)c(OC)c(OC)c1OC and COc1cc(/C=C2\CCC(C)C3C2=NN(C(C)=O)C3c2cc(OC)c(OC)c(OC)c2)cc(OC)c1OC (configuration not stated) cannot be ordered by TGI: > 100 µM for the first, > 100 µM for the second.

Going from CCSc1n/c(=C\c2ccco2)c2nnnn12 to CCCCCCCCCCCCCCCCCCNc1ccn(C2OC(COP(=O)(O)OCC3OC(n4cc(C)c(=O)[nH]c4=O)CC3O)C(O)C2O)c(=O)n1 (configuration not stated), the TGI falls from > 100 µM to 37.1 µM.

tested on: UACC-62 melanoma; test: NCI tumour cell line growth inhibition, 48 h

Going from S=C(NCc1ccccc1)c1nc[nH]c1C(=S)NCc1ccccc1 to COc1ccc(C(=O)Sc2c(-c3ccccc3)c(=O)n(-c3ccccc3)c(=S)n2-c2ccccc2)cc1, the TGI rises from 13.4 µM to > 100 µM.

Going from O=Cc1ccc2c(c1)CC1(C2)Cc2ccc3c(c2C1)CCC3 (configuration not stated) to Nc1nc(N)c2[nH]c(CNc3ccc(C(=O)O)cc3)nc2n1, the TGI rises from 18.8 µM to > 100 µM.

CC(C)(Cc1ccccc1)NC1=NCCO1 and CCC1(CC)SCc2nc3ccccc3n21 cannot be ordered by TGI: > 100 µM for the first, > 100 µM for the second.

Going from C=C(C)C(CC=C(C)C)CC12CC(CC=C(C)C)C(C)(C)C(CC=C(C)C)(C(=O)C(Cc3ccc(O)c(O)c3)=C1O)C2=O (configuration not stated) to COc1ccc(CC2c3cc(Oc4cc(CC5c6cc(OC)c(OC)cc6CCN5C)ccc4O)c(OC)cc3CCN2C)cc1 (configuration not stated), the TGI falls from > 100 µM to 15.6 µM.

Compared with CCc1nc(N)nc(N)c1-c1ccc2nn(-c3ccccc3)[n+]([O-])c2c1, CC(=O)n1nc(-c2ccccc2)n(/N=C/c2ccc([N+](=O)[O-])cc2)c1=O is higher in TGI: 17.5 µM for the first, > 100 µM for the second.

C[C@]12CC[C@H](O)CC1=CC[C@@H]1[C@@H]2CC[C@]2(C)C(=O)[C@@H](N3CCOCC3)C[C@@H]12 and O=[N+]([O-])c1ccc(Cl)c(C=NC23CC4CC(CC(C4)C2)C3)c1 cannot be ordered by TGI: > 100 µM for the first, > 10 µM for the second.

COc1ccc(C(C)NNC(=O)c2ccncc2)c(OC)c1 (configuration not stated) and CCn1c(-c2cc(OC)cc(OC)c2)nc2c1C(=O)c1ccccc1C2=O cannot be ordered by TGI: > 100 µM for the first, > 100 µM for the second.

First: O=[N+]([O-])c1cc2oc(COc3ccccc3)nc2cc1Cl
Second: COc1cc(Nc2cnc3cc(F)c(F)cc3n2)cc(OC)c1OC
The TGI of the first is lower: 41.4 µM for the first, > 100 µM for the second.

First: Cc1ccc(S(=O)(=O)N/N=C/C(=C/c2ccc(Cl)cc2)CC(/C=N/NS(=O)(=O)c2ccc(C)cc2)=C\c2ccc(Cl)cc2)cc1
Second: CC(C)(C)c1cc(C(P(=O)(c2ccccc2)c2ccccc2)P(=O)(c2ccccc2)c2ccccc2)cc(C(C)(C)C)c1O
The TGI of the first is 8.3-fold higher: 27.4 µM for the first, 3.32 µM for the second.

CCN(CC)c1c(N(CC)CC)c(=O)c1=O and CC[N+](CC)(CCNCC(N)=O)CC(N)=O cannot be ordered by TGI: 45.7 µM for the first, > 10 µM for the second.

First: COc1cc(-c2cc(=O)c3c(OC)c(OC)c(OC)c(OC)c3o2)c(OC)c(OC)c1OC
Second: COc1cc(/C=C2\CCC(C)C3C2=NN(C(C)=O)C3c2cc(OC)c(OC)c(OC)c2)cc(OC)c1OC (configuration not stated)
The TGI of the first is lower: 49.1 µM for the first, > 100 µM for the second.

Compared with CCSc1n/c(=C\c2ccco2)c2nnnn12, CCCCCCCCCCCCCCCCCCNc1ccn(C2OC(COP(=O)(O)OCC3OC(n4cc(C)c(=O)[nH]c4=O)CC3O)C(O)C2O)c(=O)n1 (configuration not stated) is lower in TGI: > 100 µM for the first, 33.8 µM for the second.
